{
  "source": "paper PMC10410611",
  "about": "“Rhenium(I) Tricarbonyl Complexes of 1,10-Phenanthroline Derivatives with Unexpectedly High Cytotoxicity” (Inorganic Chemistry, 2023)",
  "key": {"[1]": {"test_system": "ctDNA", "parameters": "method as in PMID 18467423", "conditions": "for ctDNA; cited from earlier work"}, "[2]": {"test_system": "ctDNA", "assay": "DNA melting", "assay_type": "binding, calf", "conditions": "ctDNA 40 μM, compound 30 μM", "protocol": "The DNA binding ability of complex 6 was confirmed by measuring the DNA melting temperature prior to complex binding. Briefly, 40 μM ctDNA was incubated with 30 μM of the complex at 37 °C for 15 min. Afterward, the absorbance of the solution was measured at 260 nm in each °C increment in temperature within the range from 60–97 °C. A Cary UV 300 (Agilent Technologies) was used to measure all absorbances. The experiment was programmed with a 1 °C/min temperature ramp rate from the temperature range 60–97 °C, and the holding time was 1 min. Finally, the absorbance of each experiment was normalized to 0 and 1 and further compared with the melting temperature of native ctDNA."}, "[3]": {"conditions": "cited from earlier work"}, "[4]": {"test_system": "PC3 cells", "assay": "Cytotoxicity, Resazurin assay, normoxic conditions", "assay_type": "cell-based, human", "conditions": "for IC50: normoxic conditions (∼15% O2 level), 48 h, Resazurin, read-out: IC50 (μM) ± S.D. PC3", "protocol": "(§1) The standard Resazurin assay was performed to determine the cytotoxicity of the synthesized complexes. […] After 24 h of the initial incubation period, the medium was replenished by a fresh metal complex-containing medium (100 μL/well) and incubated for an additional 48 h. Initially, the metal complex was dissolved in DMSO and the target concentration was achieved by further dilution with the medium. […] Each of the reported IC50 values is the mean of three individual experiments with standard deviation, and each concentration was assayed in sextuplicate in each successive experiment."}, "[5]": {"test_system": "PC3 cells", "assay": "Cytotoxicity, Resazurin assay, hypoxic conditions", "assay_type": "cell-based, human", "conditions": "for IC50: PC3, hypoxic conditions (2% O2), 48 h, Resazurin, read-out: IC50 (µM) ± S.D. Hypoxia; for Hypoxia resistance factor (ratio of IC50 in hypoxia and normoxia): PC3", "from_the_text": "Initially, at least three consecutive cell passages were maintained in hypoxic conditions before starting any experiments."}, "[6]": {"test_system": "RPE-1 cells", "assay": "Cytotoxicity, Resazurin assay, normoxic conditions", "assay_type": "cell-based, human", "conditions": "normoxic conditions (∼15% O2 level), 48 h, read-out: IC50 (μM) ± S.D. RPE-1", "protocol": "as §1"}, "[7]": {"test_system": "3D multicellular PC3 cell spheroids", "assay": "Cytotoxicity against 3D cell spheroid, AlamarBlue assay", "assay_type": "cell-based, human", "conditions": "average diameter 435 μm, 72 h, normoxic, read-out: IC50 against 3D multicellular PC3 cells spheroid", "protocol": "1 × 10^4 PC3 cells were seeded in each well of a Corning 96 Well Ultra-Low Attachment Treated Spheroid Microplate. After 96 h of incubation at 37 °C in normoxic conditions, the average spheroid size observed was 435 μm. Half of the medium was replaced by an equal volume of complex-containing (two times of target concentrations) medium. After 72 h, the cell viability was measured using the AlamarBlue assay. Finally, the IC50 values were determined by using GraphPad Prism 5 software after applying four parameter fitting."}},
  "data": [
    {"smiles": "CC[n+]1c(-c2ccccc2)c2cc(N)ccc2c2ccc(N)cc21", "note": "[EB, ethidium bromide, reference compound]", "values": [
      {"measurement": "binding constant of EB (KEB)", "setting": "[1]", "result": "1 × 10^7 M^–1"},
      {"measurement": "shift of ctDNA melting temperature (ΔTm)", "setting": "[2]", "result": "4 ± 0.1", "unit": "°C"}
    ]},
    {"smiles": "O.O=c1cccccc1[O][Re].[C-]#[O+].[C-]#[O+].[C-]#[O+]", "note": "[fac-[Re(CO)3(Trop)(H2O)]]", "values": [
      {"measurement": "pKa", "setting": "[3]", "result": "8.96 ± 0.02"}
    ]},
    {"smiles": "Nc1n[n+]([O-])c2ccccc2[n+]1[O-]", "note": "[Tirapazamine, tirapazamine, reference compound]", "values": [
      {"measurement": "IC50", "setting": "[4]; Homo sapiens, PC-3", "result": "~100", "unit": "µM"},
      {"measurement": "cell killing in comparison to the control", "setting": "[4]; PC3, normoxia, maximum tested concentration 100 µM", "result": "around 50%"},
      {"measurement": "IC50", "setting": "[5]; Homo sapiens, PC-3", "result": "20.4 ± 3", "unit": "µM"},
      {"measurement": "Hypoxia resistance factor (ratio of IC50 in hypoxia and normoxia)", "setting": "[5]", "result": 0.2}
    ]},
    {"smiles": "N.N.[Cl][Pt][Cl]", "note": "[cisplatin, reference compound]", "values": [
      {"measurement": "IC50", "setting": "[6]", "result": "36 ± 4", "unit": "µM"},
      {"measurement": "selectivity (ratio between IC50 against RPE-1 and IC50 against PC3 cells)", "setting": "[4]; normoxic conditions", "result": 5},
      {"measurement": "IC50", "setting": "[4]", "result": "6.9 ± 0.5", "unit": "µM"},
      {"measurement": "Hypoxia resistance factor (ratio of IC50 in hypoxia and normoxia)", "setting": "[5]", "result": "> 7"},
      {"measurement": "IC50", "setting": "[5]", "result": "> 50", "unit": "µM"},
      {"measurement": "IC50", "setting": "[7]", "result": 6.22, "unit": "µM"}
    ]}
  ]
}
